Structures can show the parent of a compound that is named as a salt.

In turn, `O=C(C#Cc1ccc(CN2CCC[C@@H]2CO)cc1)Nc1ccc(-c2ccc(Cl)cc2)cc1F` [Example 1.20, 3-[4-((R)-2-hydroxymethylpyrrolidin-1-ylmethyl)phenyl]propynoic acid-(4′-chloro-3-fluorobiphenyl-4-yl)amide] gave a melting point of 146 to 148 °C.

`O=C(C#Cc1ccc(-c2ccc(Cl)cc2)cc1)Nc1ccc(CN2CCC(O)CC2)cc1` [Example 3.18, 3-(4′-chlorobiphenyl-4-yl)propynoic acid-[4-(4-hydroxy-1-piperidin-1-ylmethyl)phenyl]amide] yielded a melting point of 243 to 247 °C.

With `O=C(CCc1ccc(CNC2CCCC2)cc1)Nc1ccc(-c2ccc(Cl)cc2)cc1` [Example 6.41, N-(4′-chlorobiphenyl-4-yl)-3-(4-cyclopentylaminomethylphenyl)propionamide], the melting point fell in the range of 196 to 197 °C.

As for `O=C(CCc1ccc(CN2CCC3(CCCC3)CC2)cc1)Nc1ccc(-c2ccc(Cl)cc2)cc1` [Example 6.28, 3-[4-(8-azaspiro[4.5]dec-8-ylmethyl)phenyl]-N-(4′-chlorobiphenyl-4-yl)propionamide], the melting point stood at 201.5 °C.

In the case of `CN(CCCN)Cc1ccc(CCC(=O)Nc2ccc(-c3ccc(Cl)cc3)cc2)cc1` [Example 6.27, 3-(4-{[(3-aminopropyl)methylamino]methyl}phenyl)-N-(4′-chlorobiphenyl-4-yl)propionamide], the melting point came out at 165 °C.

In turn, `O=C(C#Cc1ccc(C(F)(F)F)cc1Cl)Nc1ccc(OCCn2cnnc2)cc1` [Example 3.44, 3-(2-chloro-4-trifluoromethylphenyl)propynoic acid-[4-(2-[1.2.4]triazol-4-ylethoxy)phenyl]amide] yielded a melting point of 223 to 227 °C.

With `COCCN(Cc1ccc(CCC(=O)Nc2ccc(-c3ccc(Cl)cc3)cc2)cc1)CC(C)(C)O` [Example 6.14, N-(4′-chlorobiphenyl-4-yl)-3-(4-{[(2-hydroxy-2-methylpropyl)-(2-methoxyethyl)amino]methyl}phenyl)propionamide], the melting point lay within 108 to 109 °C.

Turning to `CN(Cc1ccc(C#CC(=O)Nc2ccc(-c3ccc(Cl)cc3)cc2)cc1)Cc1ccccn1` [Example 1.58], the melting point was 217 to 218 °C.

Regarding `O=C(C#Cc1ccc(CCN2CCCC2)cc1)Nc1ccc(Cl)cc1` [Example 2.2, 3-[4-(2-pyrrolidin-1-ylethyl)phenyl]propynoic acid-4-chlorophenylamide], the melting point was 153 to 154 °C.

In turn, `O=C(C#Cc1ccc(Cl)cc1Cl)Nc1ccc2oc(CCN3CCCC3)nc2c1` [Example 4.12, 3-(2,4-dichlorophenyl)propynoic acid-[2-(2-pyrrolidin-1-ylethyl)benzoxazol-5-yl]amide] registered a melting point of 130 °C.

On to `O=C(C#Cc1ccc(-c2ccc(Cl)cc2)cc1)Nc1ccc(CN2CCC(O)(C(F)(F)F)CC2)cc1` [Example 3.17, 3-(4′-chlorobiphenyl-4-yl)propynoic acid-[4-(4-hydroxy-4-trifluoromethylpiperidin-1-ylmethyl)phenyl]amide], for which the melting point fell in the range of 194 to 200 °C.

Take `O=C(C#Cc1ccc(CCN2CCCC2)cc1)Nc1ccc(-c2ccccc2)cc1` [Example 2.1, 3-[4-(2-pyrrolidin-1-ylethyl)phenyl]propynoic Acid biphenyl-4-ylamide]: the melting point was 180 to 189 °C.

`COCCN(C)Cc1ccc(CCC(=O)Nc2ccc(-c3ccc(Cl)cc3)cc2)cc1` [Example 6.17, N-(4′-chlorobiphenyl-4-yl)-3-(4-{[(2-methoxyethyl)methylamino]methyl}phenyl)propionamide] returned a melting point of 138 °C.

`O=C(CCc1ccc(CN2CCN3CCCC3C2)cc1)Nc1ccc(-c2ccc(Cl)cc2)cc1` (stereo not shown) [Example 6.16, N-(4′-chlorobiphenyl-4-yl)-3-[4-(hexahydropyrrolo[1,2-a]pyrazin-2-ylmethyl)phenyl]propionamide] registered a melting point of 177 °C.

`CN(C(=O)CCc1ccc(CN2CCC3(CCCC3)CC2)cc1)c1ccc(-c2ccc(Cl)cc2)cc1` [Example 6.45, 3-[4-(8-azaspiro[4.5]dec-8-ylmethyl)phenyl]-N-(4′-chlorobiphenyl-4-yl)-N-methylpropionamide] showed a melting point of 119 °C.

On to `O=C(CCc1ccc(CN2CCC(N3CCCCC3)C2)cc1)Nc1ccc(-c2ccc(Cl)cc2)cc1` (stereo not shown) [Example 6.25, N-(4′-chlorobiphenyl-4-yl)-3-[4-(3-piperidin-1-ylpyrrolidin-1-ylmethyl)phenyl]propionamide], for which the melting point came to 168.8 °C.

`CCN(CC)CCOc1ccc(NC(=O)C#Cc2ccc(Cl)cc2Cl)cc1Cl` [Example 4.1, 3-(2,4-dichlorophenyl)propynoic acid-[3-chloro-4-(2-diethylaminoethoxy)phenyl]amide] registered a melting point of 98 to 100 °C.

`COC1CCN(Cc2ccc(CCC(=O)Nc3ccc(-c4ccc(Cl)cc4)cc3)cc2)CC1` [Example 6.3, N-(4′-chlorobiphenyl-4-yl)-3-[4-(4-methoxypiperidin-1-ylmethyl)phenyl]propionamide] registered a melting point of 143 to 144 °C.

Turning to `CC(C)N(Cc1ccc(CCC(=O)Nc2ccc(-c3ccc(Cl)cc3)cc2)cc1)C1CCCCC1` [Example 6.40, N-(4′-chlorobiphenyl-4-yl)-3-{4-[(cyclohexylisopropylamino)methyl]phenyl}propionamide], the melting point was found to be 165 °C.

`O=C(C#Cc1ccc(-c2ccc(Cl)cc2)cn1)Nc1ccc(CN2CCC(O)CC2)cc1` [Example 3.168, 3-[5-(4-chlorophenyl)pyridin-2-yl]propynoic acid-[4-(4-hydroxypiperidin-1-ylmethyl)phenyl]amide]: the melting point lay within 186 to 190 °C.

With `CN(Cc1ccc(/C=C/C(=O)Nc2ccc(-c3ccc(Cl)cc3)cc2)cc1)C1CCN(C(=O)OC(C)(C)C)CC1` [Example 5.35, tert-butyl 4-({-[(E)-2-(4′-chlorobiphenyl-4-ylcarbamoyl)vinyl]benzyl}methylamino)piperidine-1-carboxylate], the melting point lay within 168 to 169 °C.

`CCN(CC)CCOc1ccc(N(C)C(=O)C#Cc2ccc(C(F)(F)F)cc2Cl)cc1` [Example 3.39]: the melting point was 135 to 138 °C.

For `CCN(CC)CCOc1ccc(NC(=O)C#Cc2ccc(Cl)cc2Cl)c(Cl)c1` (as salt: hydrochloride) [Example 4.8, 3-(2,4-dichlorophenyl)propynoic acid-[2-chloro-4-(2-diethylaminoethoxy)phenyl]amide], the melting point was 128 to 130 °C.

`CC#Cc1ccc(NC(=O)C#Cc2ccc(CCN3CCCC3)cc2)cc1` [Example 2.5, 3-[4-(2-pyrrolidin-1-ylethyl)phenyl]propynoic acid-(4-prop-1-ynylphenyl)amide]: the melting point is 198 to 199 °C.

Molecule `O=C(C#Cc1ccc(CCN2CCCC2)cc1)Nc1ccc(-c2ccc(Cl)cc2)cc1` [Example 2.4, 3-[4-(2-pyrrolidin-1-ylethyl)phenyl]propynoic acid-(4′-chlorobiphenyl-4-yl)amide] displayed a melting point of 217 to 218 °C.

For the molecule `COCCN(C)Cc1ccc(NC(=O)C#Cc2ccc(-c3ccc(Cl)cc3)cc2)cc1` [Example 3.11, 3-(4′-chlorobiphenyl-4-yl)propynoic acid-(4-{[(2-methoxyethyl)methylamino]methyl}phenyl)amide], the melting point was in the range of 130 to 133 °C.

The molecule `COc1cc(NC(=O)C#Cc2ccc(C(F)(F)F)cc2Cl)ccc1OCCN(C)CC1CC1` (as salt: hydrochloride) [Example 4.278, 3-(2-chloro-4-trifluoromethylphenyl)propynoic acid-{4-[2-(cyclopropylmethylmethylamino)ethoxy]-3-methoxyphenyl}amide hydrochloride] registered a melting point of 173 to 176 °C.

The molecule `CCN(CC)CCOc1ccc(NC(=O)C#Cc2ccc(C(F)(F)F)cc2Cl)cc1NS(C)(=O)=O` [Example 4.23, 3-(2-chloro-4-trifluoromethylphenyl)propynoic acid-[4-(3-diethylaminoethoxy)-3-methanesulfonylaminophenyl]amide] yielded a melting point of 57 to 60 °C.

`CCCN(CCOc1ccc(NC(=O)C#Cc2ccc(C(F)(F)F)cc2Cl)cc1OC)CC1CC1` (as salt: hydrochloride) [Example 4.279, 3-(2-chloro-4-trifluoromethylphenyl)propynoic acid-{4-[2-(cyclopropylmethylpropylamino)ethoxy]-3-methoxyphenyl}amide hydrochloride] registered a melting point of 185 to 188 °C.

For `CN(Cc1ccc(/C=C/C(=O)Nc2ccc(-c3ccc(Cl)cc3)cc2)cc1)C1CCOCC1` [Example 5.7, (E)-N-(4′-chlorobiphenyl-4-yl)-3-(4-{[methyl-(tetrahydropyran-4-yl)amino]methyl}phenyl)acrylamide], the melting point lay in the range of 196 to 197 °C.

Molecule `O=C(C#Cc1ccc(C(F)(F)F)cc1Cl)Nc1ccc2nc(N3CCCCC3)ccc2c1` [Example 7.1, 3-(2-chloro-4-trifluoromethylphenyl)propynoic acid-(2-piperidin-1-ylquinolin-6-yl)amide] registered a melting point of 176 to 179 °C.

`CN1CCN(Cc2ccc(NC(=O)C#Cc3ccc(-c4ccc(Cl)cc4)cc3)cc2)CC1` [Example 3.8, 3-(4′-chlorobiphenyl-4-yl)propynoic acid-[4-(4-methylpiperazin-1-ylmethyl)phenyl]amide] came in with a melting point of 182 to 185 °C.

As to `CC1CC(C)CN(Cc2ccc(NC(=O)C#Cc3ccc(-c4ccc(Cl)cc4)cn3)cc2)C1` (stereo not shown) [Example 3.29, 3-[5-(4-chlorophenyl)pyridin-2-yl]propynoic acid-[4-(3,5-dimethylpiperidin-1-ylmethyl)phenyl]amide], the melting point fell in the range of 195 to 197 °C.

`CCN(Cc1ccc(CCC(=O)Nc2ccc(-c3ccc(Cl)cc3)cc2)cc1)CC(C)(C)O` [Example 6.42, N-(4′-chlorobiphenyl-4-yl)-3-(4-{[ethyl-(2-hydroxy-2-methylpropyl)amino]methyl}phenyl)propionamide] came in with a melting point of 135 °C.
